According to ChEMBL document CHEMBL1287800, “Pyridylmethylthio derivatives as VEGF inhibitors. Part 1” (Bioorg Med Chem Lett, 2010):

Tested on: HUVEC
Assay: Inhibition of VEGF-induced HUVEC proliferation treated 1 hr before VEGF challenge measured 3 days by WST-8 assay
Assay type: functional, cell-based
Conditions: Homo sapiens

With `Clc1ccc(Nc2nnc(Cc3ccncc3)c3ccccc23)cc1` [VATALANIB] the IC50 was 33 nM.
